{"source": "paper PMC13286569", "about": "(eLife, 2026)", "target": "T1, DcDop2 (Diaphorina citri, UniProt A0A3Q0INR4)", "T1 construct": "gene LOC103507230; full ORF (2049 nt, 682 residues) in pcDNA3.1, transiently expressed in CHO-WTA11 cells (Galpha16 and aequorin)", "T1 sequence (A0A3Q0INR4 1-682)": "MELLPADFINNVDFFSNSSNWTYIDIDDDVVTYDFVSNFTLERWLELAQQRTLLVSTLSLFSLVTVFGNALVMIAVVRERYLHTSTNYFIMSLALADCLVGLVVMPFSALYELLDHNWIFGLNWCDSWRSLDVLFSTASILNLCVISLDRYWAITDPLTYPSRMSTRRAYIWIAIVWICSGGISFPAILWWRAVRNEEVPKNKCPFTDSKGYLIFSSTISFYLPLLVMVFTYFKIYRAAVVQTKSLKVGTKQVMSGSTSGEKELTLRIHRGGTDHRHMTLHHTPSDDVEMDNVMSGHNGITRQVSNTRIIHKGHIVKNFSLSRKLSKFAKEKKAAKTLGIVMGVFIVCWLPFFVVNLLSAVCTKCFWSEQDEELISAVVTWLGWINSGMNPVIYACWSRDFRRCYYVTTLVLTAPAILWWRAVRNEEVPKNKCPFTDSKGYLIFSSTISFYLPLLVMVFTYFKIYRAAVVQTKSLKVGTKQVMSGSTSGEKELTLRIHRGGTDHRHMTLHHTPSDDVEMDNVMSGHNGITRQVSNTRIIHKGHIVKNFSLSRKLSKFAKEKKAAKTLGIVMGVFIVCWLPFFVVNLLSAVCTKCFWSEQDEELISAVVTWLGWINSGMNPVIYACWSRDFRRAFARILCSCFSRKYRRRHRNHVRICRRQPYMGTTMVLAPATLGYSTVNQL", "assay": "aequorin calcium mobilization luminescence in transfected CHO-WTA11 cells", "assay_type": "cell-based", "note": "pEC50: −log10 of the molar value."}
{"smiles": "NCCc1ccc(O)c(O)c1", "note": "[DA, dopamine]", "values": [{"measurement": "pEC50", "result": 8.39}]}
